# Numbers after ± are expanded uncertainties.
# Conditions: Crystal; DTA
row,SMILES,Normal melting temperature
1,"CCCCCCCC(=O)OCC(COC(=O)CCCCCCC)OC(=O)CCCCCCC [1,2,3-propanetriol trioctanoate]",9.60 ± 0.53 °C
2,"CCCCCCCC/C=C\CCCCCCCC(=O)OCC(COC(=O)CCCCCCC/C=C\CCCCCCCC)OC(=O)CCCCCCC/C=C\CCCCCCCC [1,2,3-tri(cis-9-octadecenoyl)glycerol]",5.27 ± 0.53 °C
3,CCCCCCCCCCCCCCCC(=O)O [hexadecanoic acid],63.32 ± 0.53 °C
4,CCCCCCCCCCCCCCCCCC(=O)O [octadecanoic acid],70.23 ± 0.53 °C
5,CCCCCCCCCCCCCC(=O)O [tetradecanoic acid],55.41 ± 0.53 °C
6,CC/C=C\C/C=C\C/C=C\CCCCCCCC(=O)OCC(COC(=O)CCCCCCC/C=C\C/C=C\C/C=C\CC)OC(=O)CCCCCCC/C=C\C/C=C\C/C=C\CC [trilinolenin],-22.0 ± 0.53 °C
